Assay results reported in article PMC8861568, “Identification of (Z)-2-benzylidene-dihydroimidazothiazolone derivatives as tyrosinase inhibitors: Anti-melanogenic effects and in silico studies” (Computational and Structural Biotechnology Journal, 2022).

Columns and labels:
Type in all cases: cell-based, murine
[1] = biological target: T1, tyrosinase in B16F10 cells (Mus musculus, UniProt P11344); test: Cellular tyrosinase inhibition assay in B16F10 cells; conditions: 48 h; for cellular tyrosinase activity: 5, 10, 20 μM, α-MSH 1 μM + IBMX 200 μM
T1 construct: endogenous in cells; host or cells: B16F10 murine melanoma cells (ATCC), stimulated with alpha-MSH and IBMX
T1 sequence (P11344 19-533): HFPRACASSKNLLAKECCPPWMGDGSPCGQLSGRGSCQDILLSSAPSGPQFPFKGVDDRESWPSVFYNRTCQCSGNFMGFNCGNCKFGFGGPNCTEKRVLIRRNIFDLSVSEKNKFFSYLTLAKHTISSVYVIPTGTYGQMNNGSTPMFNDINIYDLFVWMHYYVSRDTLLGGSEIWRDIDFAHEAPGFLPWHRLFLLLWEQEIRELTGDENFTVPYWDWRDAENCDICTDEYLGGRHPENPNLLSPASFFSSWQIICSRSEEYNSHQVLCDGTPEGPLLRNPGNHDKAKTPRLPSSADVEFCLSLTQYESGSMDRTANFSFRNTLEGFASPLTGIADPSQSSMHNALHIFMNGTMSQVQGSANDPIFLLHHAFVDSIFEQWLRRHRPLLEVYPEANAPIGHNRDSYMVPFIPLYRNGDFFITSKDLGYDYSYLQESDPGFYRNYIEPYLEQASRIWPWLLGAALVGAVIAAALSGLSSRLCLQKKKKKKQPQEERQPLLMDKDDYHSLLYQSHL
Protocol: B16F10 cells co-stimulated with α -melanocyte-stimulating hormone (α -MSH) and 3-isobutyl-1-methylxanthine (IBMX) were used to investigate the inhibitory effects of compounds 1b and 1f on mammal cellular tyrosinase. Kojic acid was used as the positive control. […] Cellular tyrosinase activities were determined by measuring optical densities at 492 nm.
Cellular tyrosinase inhibition assays were conducted as previously described with minor modification. B16F10 cells were seeded at a density of 1 × 10^5 cells/well in 6-well plates and incubated in a humidified 5% CO2 atmosphere for 24 h at 37 °C. […] Cells were then washed twice with PBS, lysed by adding 45 mM of phosphate buffer (100 µL) containing 1% Triton X-100 (5 µL) and 1% PMSF (5 µL, phenylmethylsulfonyl fluoride) and frozen at −80 °C for 1 h. Lysates were clarified by centrifugation at 12,000 rpm for 30 min at 4 °C. Cell lysate supernatants (80 µL/well) in a 96-well plate were then mixed with 20 µL of L-DOPA (2 mg/mL in distilled water) and incubated for 30 min at 37 °C. Absorbances of reaction mixtures at 492 nm were recorded using a microplate reader (VersaMax^TM, Molecular Devices, Sunnyvale, CA, USA). Kojic acid was used as the positive control. Protein concentrations were determined using Bicinchoninic Acid (BCA) protein assay reagent using Bovine Serum Albumin (BSA) as the standard (Thermo Scientific, Rockford, IL, USA). All experiments were independently conducted three times.

B16F10 cells [2] = test: Extracellular melanin (melanin level in medium) of B16F10 cells; conditions: 48 h; for melanin levels in media compared with kojic acid: α-MSH + IBMX; for melanin levels in media: 5, 10, 20 μM, α-MSH 1 μM + IBMX 200 μM
Protocol: To determine whether melanin levels in cell culture media were influenced by compounds 1b or 1f, melanin contents in B16F10 cell culture media after treatments with derivatives at different concentrations in the presence of α -MSH and IBMX for 48 h were analyzed by measuring optical densities at 405 nm using a microplate reader.
(§1) The inhibitory effects of compounds 1b and 1f on intracellular melanin contents were investigated as previously described. B16F10 cells were seeded at a density of 1 × 10^5 cells/well in 6-well plates and incubated in a humidified 5% CO2 atmosphere for 24 h at 37 °C. […] For extracellular melanin contents, the optical density of the cell culture media was directly measured at 405 nm. On the other hand, for intracellular melanin contents, the following procedure was performed. Briefly, after washing twice with PBS, adherent cells were detached by incubation in Trypsin/EDTA for 1 min. Pellets were dissolved in 100 μL of 1 N NaOH and then incubated for 1 h at 60 °C to dissolve the melanin. Intracellular melanin was quantified by measuring optical densities at 405 nm using a microplate reader (VersaMax^TM, Molecular Devices, Sunnyvale, CA, USA). Results were normalized versus cell pellet total protein using BCA protein assay reagent using BSA as the standard (Thermo Scientific, Rockford, IL, USA). The intracellular melanin contents were calculated using the following equation: (ΔODsample/ΔODcontrol) × 100%; where ΔODsample = the optical density of the test compound, and ΔODcontrol = the optical density of control. Experiments were performed in triplicate.

B16F10 cells [3] = test: Intracellular melanin content in B16F10 cells; conditions: 48 h; for intracellular melanin production compared with kojic acid: α-MSH + IBMX; for intracellular melanin production: 5, 10, 20 μM, α-MSH 1 μM + IBMX 200 μM
Protocol: To determine whether the inhibitory effects of compounds 1b and 1f on cellular TYR influence melanogenesis, cellular melanin production was measured. As was performed in TYR inhibition experiments, B16F10 cells co-stimulated with α -MSH and IBMX were used to compare the inhibitory effects of 1b and 1f on melanogenesis. Kojic acid was used as the positive control. […] Intracellular melanin contents were determined by measuring optical densities at 405 nm.
as §1

## O=c1/c(=C/c2ccc(O)cc2O)sc2n1CCN=2 [Compound 1b, (Z)-2-(2,4-Dihydroxybenzylidene)-5,6-dihydroimidazo[2,1-b]thiazol-3(2H)-one]
[1]; 1b at 10 μM, α-MSH + IBMX
  cellular tyrosinase inhibition compared with kojic acid: to the same extent as compound 1f or kojic acid at 20 μM
[1]
  cellular tyrosinase activity: significantly and concentration-dependently reduced this increase in tyrosinase activity
B16F10 cells [2]; 1b at 5 μM
  melanin levels in media compared with kojic acid: suppressed these increases more than kojic acid at 20 μM
B16F10 cells [2]
  melanin levels in media: significantly and concentration-dependently suppressed these increases
B16F10 cells [3]; 1b at 5 μM
  intracellular melanin production compared with kojic acid: by the same extent as kojic acid at 20 μM
B16F10 cells [3]
  intracellular melanin production: significantly and concentration-dependently suppressed this increase

## COc1ccc(/C=c2\sc3n(c2=O)CCN=3)cc1O [Compound 1f, (Z)-2-(3-Hydroxy-4-methoxybenzylidene)-5,6-dihydroimidazo[2,1-b]thiazol-3(2H)-one]
[1]
  cellular tyrosinase activity: significantly and concentration-dependently reduced this increase in tyrosinase activity
B16F10 cells [2]; 1f at 20 μM
  melanin levels in media compared with kojic acid: suppressed these increases more than kojic acid at 20 μM
B16F10 cells [2]
  melanin levels in media: significantly and concentration-dependently suppressed these increases
B16F10 cells [3]; 1f at 20 μM, kojic acid 20 μM
  intracellular melanin production compared with kojic acid: stronger inhibitory effect on melanogenesis than kojic acid
B16F10 cells [3]
  intracellular melanin production: significantly and concentration-dependently suppressed this increase
